These results are taken from ChEMBL document CHEMBL5257076, “Design, synthesis, structure-activity relationship studies, and evaluation of novel GLS1 inhibitors” (Bioorg Med Chem Lett, 2023).

Calls of active or inactive are those of the source. The calls are words filed in the database; no cut-off is given here.

Test [1] has as its target T1, Glutaminase kidney isoform, mitochondrial (Mus musculus) (UniProt D3Z7P3).
T1 sequence (whole entry): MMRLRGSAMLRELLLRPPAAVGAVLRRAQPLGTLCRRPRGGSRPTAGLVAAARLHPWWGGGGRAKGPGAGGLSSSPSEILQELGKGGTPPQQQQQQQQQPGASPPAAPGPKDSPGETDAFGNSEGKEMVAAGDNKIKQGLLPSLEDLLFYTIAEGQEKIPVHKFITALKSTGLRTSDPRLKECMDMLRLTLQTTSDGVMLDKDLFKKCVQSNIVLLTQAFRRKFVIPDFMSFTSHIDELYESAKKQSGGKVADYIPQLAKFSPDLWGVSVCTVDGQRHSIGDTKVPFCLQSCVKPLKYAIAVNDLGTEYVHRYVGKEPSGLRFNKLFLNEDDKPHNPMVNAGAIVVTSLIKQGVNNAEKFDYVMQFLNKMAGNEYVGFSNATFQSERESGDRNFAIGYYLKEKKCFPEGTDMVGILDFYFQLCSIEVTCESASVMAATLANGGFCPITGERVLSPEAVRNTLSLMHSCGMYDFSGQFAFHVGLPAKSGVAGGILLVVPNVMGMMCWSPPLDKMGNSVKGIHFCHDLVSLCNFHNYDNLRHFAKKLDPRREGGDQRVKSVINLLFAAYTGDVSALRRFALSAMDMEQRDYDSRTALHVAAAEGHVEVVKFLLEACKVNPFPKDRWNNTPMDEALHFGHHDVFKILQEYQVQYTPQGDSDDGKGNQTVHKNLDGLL
In words: Inhibition of GLS1 in mouse kidney extract at 10 mM. It counts as tissue-based.

Test [2] has as its target T2, Glutaminase kidney isoform, mitochondrial (Homo sapiens) (UniProt O94925).
T2 sequence (whole entry): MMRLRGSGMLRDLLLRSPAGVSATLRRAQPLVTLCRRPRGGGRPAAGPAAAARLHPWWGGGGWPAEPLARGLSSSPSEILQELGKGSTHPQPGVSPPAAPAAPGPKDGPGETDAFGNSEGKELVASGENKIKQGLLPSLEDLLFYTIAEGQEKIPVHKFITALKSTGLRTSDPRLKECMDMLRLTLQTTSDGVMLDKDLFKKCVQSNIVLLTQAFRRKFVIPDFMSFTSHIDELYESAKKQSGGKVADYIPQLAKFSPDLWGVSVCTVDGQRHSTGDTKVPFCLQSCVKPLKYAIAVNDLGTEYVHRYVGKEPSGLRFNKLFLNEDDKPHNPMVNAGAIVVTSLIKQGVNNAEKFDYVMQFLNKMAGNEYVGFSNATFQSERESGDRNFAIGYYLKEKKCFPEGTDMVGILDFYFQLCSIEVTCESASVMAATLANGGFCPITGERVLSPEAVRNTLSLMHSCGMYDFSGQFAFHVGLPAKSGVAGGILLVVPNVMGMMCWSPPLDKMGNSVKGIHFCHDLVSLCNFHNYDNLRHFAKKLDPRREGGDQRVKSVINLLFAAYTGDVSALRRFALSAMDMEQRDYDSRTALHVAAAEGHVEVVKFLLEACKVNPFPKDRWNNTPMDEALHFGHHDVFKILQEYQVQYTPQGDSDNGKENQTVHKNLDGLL
In words: Inhibition of human recombinant GLS1 at 10 mM relative to control.

Test [3] addresses T1, Glutaminase kidney isoform, mitochondrial (Mus musculus). In words: Inhibition of GLS1 in mouse kidney extract at 10 mM relative to control. It counts as tissue-based.
The target is the same in test [4]. As to the kind of experiment: Inhibition of mouse recombinant GLS1 relative to control. As to conditions: concentration not given here.
Test [5] shares this target. In words: Inhibition of mouse recombinant GLS1 glutaminase activity at 1 mM.
For test [6] the target is unchanged. In words: Inhibition of GLS1 in mouse kidney extract at 1 mM relative to control. Format: tissue-based.
Test [7] addresses T2, Glutaminase kidney isoform, mitochondrial (Homo sapiens). In words: Inhibition of human recombinant GLS1 at 1 mM relative to control.

As for `O=C(c1cc(Cc2ccccc2)n[nH]1)N1CCCCCC1`, the inhibition (as a rule, the share of the control response that was lost under treatment) in test [1] was “inactive”.
Turning to `O=C(N[C@H]1CC[C@H](O)CC1)c1cc(Cc2ccc(F)cc2)n[nH]1`, the inhibition was determined as 94.6% in test [2], 90.1% in test [3] and 73.2% in test [4].
For the molecule `CON(C)C(=O)c1cc(Cc2ccccc2)n[nH]1`, the inhibition entry in test [1] is “inactive”.
On the same count and under the same terms, the entry for `O=C1CCC(NC(=O)c2cc(Cc3ccccc3)n[nH]2)CC1` is “inactive”; for `O=C(c1cc(Cc2ccccc2)n[nH]1)N1CCCCC1` it is “inactive”.
`O=C(N[C@H]1CC[C@H](O)CC1)c1cc(CCc2ccccc2)n[nH]1`: the inhibition in test [3] was 58.6%.
For `O=C(N[C@H]1CC[C@H](O)CC1)c1cc(-c2ccccc2)c[nH]1`, the inhibition entry in test [1] is “inactive”.
Still for that read-out and setting: under `O=C(N[C@H]1CC[C@H](O)CC1)c1ccc(-c2ccccc2)[nH]1` stands “inactive”.
On to `NNC(=O)c1cc(-c2ccccc2)n[nH]1`, for which the inhibition in test [3] stood at 52.6%.
In the case of `O=C(c1cc(Cc2ccccc2)n[nH]1)N1CCOCC1`, the inhibition result in test [1] was “inactive”.
With `[N-]=[N+]=CC(=O)CC[C@H](N)C(=O)O`, in test [5], the inhibition result was “Active”. In addition, the inhibition in test [4] came to 55.5%; in test [6] it was 65.5%; in test [7], 84.1%.
As to `O=C(N[C@H]1CC[C@H](O)CC1)c1ncc(-c2ccccc2)[nH]1`, the inhibition entry in test [1] is “Active”.
Same read-out and setting: the entry for `O=C(NCCO)c1cc(Cc2ccccc2)n[nH]1` is “inactive”; for `O=C(c1cc(Cc2ccccc2)n[nH]1)N1CCC(O)CC1` it is “inactive”; for `CNC(=O)c1cc(Cc2ccccc2)n[nH]1` it is “inactive”.
Consider `O=C(c1cc(Cc2ccccc2)n[nH]1)N1CCCC1`, for which the inhibition result in test [1] is “inactive”.
The same measure, in the same setting: under `CN(C)C(=O)c1cc(Cc2ccccc2)n[nH]1` stands “inactive”.
On to `O=C(N[C@H]1CC[C@H](O)CC1)c1cc(-c2ccccc2)n[nH]1`, for which the inhibition in test [2] was found to be 97.1%; in test [3] it was 93.3%; in test [4], 81.4%.
Take `O=C(N[C@H]1CC[C@H](O)CC1)c1cc(Cc2ccccc2)n[nH]1`: the inhibition in test [3] turned out to be 99.4%; in test [4], 19.7%.
In the case of `O=C(Nc1ccccc1)c1cc(Cc2ccccc2)n[nH]1`, in test [1], the inhibition entry is “inactive”.
